Experimental data: patent publication US12252524B2, “GIP/GLP1 co-agonist compounds” (Eli Lilly and Company, priority 2018, dated 2025)
Numbered stars: 1 amine (or outer) side, 2 acyl side, 3 side chain; on linkers, the order of the positions; unused ones are H or OH. Square brackets hold non-standard residues; d marks the D form. Side chains are listed from the residue outwards. Peptide text beside a SMILES is read from it. * marks the point of attachment. C20 diacid = O=C(O)CCCCCCCCCCCCCCCCCCC(=O)*; C18 diacid = O=C(O)CCCCCCCCCCCCCCCCC(=O)*; αMePhe(2-F) = C[C@](N)(Cc1ccccc1F)C(=O)O; γGlu = O=C(O)[C@H](CCC(=O)[*:2])N[*:1]; 3Pal = N[C@@H](Cc1cccnc1)C(=O)O; 4Pal = N[C@@H](Cc1ccncc1)C(=O)O; αMeL = CC(C)C[C@](C)(N)C(=O)O; Dab = NCC[C@H](N)C(=O)O; AEEA = NCCOCCOCC(=O)O; Aib = CC(C)(N)C(=O)O

Legend:
human GIP receptor = molecular target: T1, human GIP receptor (Homo sapiens, UniProt P48546); assay: [125I]-GIP binding (SPA), human GIP receptor; details: read-out: hGIPR Ki, nM (SEM, n)
T1 construct: expressed in transfected cells; crude membranes
T1 sequence (P48546 22-466): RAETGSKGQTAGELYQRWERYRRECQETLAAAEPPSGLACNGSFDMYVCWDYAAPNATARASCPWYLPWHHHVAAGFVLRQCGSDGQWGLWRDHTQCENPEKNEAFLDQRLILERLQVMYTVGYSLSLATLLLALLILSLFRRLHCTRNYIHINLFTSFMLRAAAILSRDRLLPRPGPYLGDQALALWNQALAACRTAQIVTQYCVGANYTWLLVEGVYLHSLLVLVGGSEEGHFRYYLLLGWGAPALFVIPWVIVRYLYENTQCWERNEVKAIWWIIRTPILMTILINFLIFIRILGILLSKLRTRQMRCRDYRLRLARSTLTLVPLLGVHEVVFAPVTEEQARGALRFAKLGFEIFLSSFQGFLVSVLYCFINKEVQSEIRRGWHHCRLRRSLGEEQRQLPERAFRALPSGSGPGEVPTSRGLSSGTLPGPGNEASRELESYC

[1] = molecular target: T2, gastric inhibitory peptide receptor (GIPR) (Homo sapiens, UniProt P48546); assay: cAMP pharmacological functional assay in presence of casein, hGIPR; format: cell-based; details: HEK293 cells expressing hGIPR, 0.1% Casein, geometric mean; read-out: hGIPR cAMP Rel EC50 nM (SEM, n)
T2 sequence (P48546 22-466): T1 sequence (P48546 22-466)

human GLP-1R = human GLP-1R (Homo sapiens, UniProt P43220); assay: [125I]-GLP-1 binding (SPA), human GLP-1 receptor; set-up: expressed in transfected cells; crude membranes; details: read-out: hGLP1R Ki, (nM) (SEM, n)
Chain of human GLP-1R (P43220 24-463): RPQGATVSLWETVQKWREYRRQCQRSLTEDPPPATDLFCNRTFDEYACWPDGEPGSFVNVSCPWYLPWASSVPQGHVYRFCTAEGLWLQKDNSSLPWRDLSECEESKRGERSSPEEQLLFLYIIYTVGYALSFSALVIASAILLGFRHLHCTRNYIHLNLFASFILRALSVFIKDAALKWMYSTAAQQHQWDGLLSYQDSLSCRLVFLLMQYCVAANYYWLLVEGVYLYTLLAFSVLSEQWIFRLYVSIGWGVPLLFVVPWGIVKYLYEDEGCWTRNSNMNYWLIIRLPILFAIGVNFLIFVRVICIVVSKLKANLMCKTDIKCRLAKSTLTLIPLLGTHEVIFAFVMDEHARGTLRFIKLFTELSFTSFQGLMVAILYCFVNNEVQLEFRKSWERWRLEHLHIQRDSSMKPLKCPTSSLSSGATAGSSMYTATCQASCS
How it was run: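 Ki values are geometric means with SEM over independent replicates on different days, derived from IC50s fitted by four-parameter nonlinear regression. The assay used crude cell membranes in HEPES buffer, pH 7.4, containing CaCl2, MgCl2, bacitracin and TWEEN-20.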

[2] = molecular target: human GLP-1 receptor (GLP-1R) (Homo sapiens, UniProt P43220); assay: cAMP pharmacological functional assay in presence of casein, hGLP-1R; format: cell-based; details: HEK293 cells expressing hGLP-1R, 0.1% Casein, geometric mean; read-out: hGLP1R cAMP Rel EC50 nM (SEM, n)
Chain of human GLP-1 receptor (GLP-1R) (P43220 24-463): as above

human Gcg receptor = molecular target: T3, human Gcg receptor (Homo sapiens, UniProt P47871); assay: [125I]-Glucagon binding (SPA), human Gcg receptor; details: read-out: hGLcgR Ki, nM (SEM, n)
T3 construct: expressed in transfected cells; crude membranes
T3 sequence (P47871 26-477): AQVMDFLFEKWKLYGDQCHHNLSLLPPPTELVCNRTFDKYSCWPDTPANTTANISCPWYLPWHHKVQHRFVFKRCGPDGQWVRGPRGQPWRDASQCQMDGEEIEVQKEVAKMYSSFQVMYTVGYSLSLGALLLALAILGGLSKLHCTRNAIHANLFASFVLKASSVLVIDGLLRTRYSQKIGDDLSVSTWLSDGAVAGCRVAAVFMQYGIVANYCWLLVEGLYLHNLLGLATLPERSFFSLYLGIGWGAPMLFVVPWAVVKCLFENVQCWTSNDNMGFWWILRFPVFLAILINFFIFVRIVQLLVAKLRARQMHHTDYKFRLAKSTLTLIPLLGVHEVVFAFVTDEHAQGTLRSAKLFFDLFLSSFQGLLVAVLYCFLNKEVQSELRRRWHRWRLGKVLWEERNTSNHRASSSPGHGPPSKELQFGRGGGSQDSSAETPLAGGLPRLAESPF
How it was run: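 Scintillation counts are taken after membranes and WGA beads incubate and settle for 12 hours at room temperature. Buffer is 25 mM HEPES, pH 7.4, with CaCl2, MgCl2, bacitracin and Tween-20. Ki values, from four-parameter IC50 fits, are geometric means over independent days.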

SMILES: CC[C@H](C)[C@H](NC(=O)[C@H](CCCCN)NC(=O)[C@H](CC(=O)O)NC(=O)[C@H](CC(C)C)NC(=O)[C@H](CC(C)C)NC(=O)[C@@H](NC(=O)[C@H](CO)NC(=O)[C@H](Cc1ccc(O)cc1)NC(=O)[C@H](CC(=O)O)NC(=O)[C@H](CO)NC(=O)[C@@H](NC(=O)[C@H](Cc1ccccc1)NC(=O)[C@@H](NC(=O)CNC(=O)[C@H](CCC(=O)O)NC(=O)C(C)(C)NC(=O)[C@@H](N)Cc1ccc(O)cc1)[C@@H](C)O)[C@@H](C)O)[C@@H](C)CC)C(=O)N[C@@H](C)C(=O)N[C@@H](CCCCNC(=O)COCCOCCNC(=O)COCCOCCNC(=O)CC[C@H](NC(=O)CCCCCCCCCCCCCCCCCCC(=O)O)C(=O)O)C(=O)NC(C)(C)C(=O)N[C@@H](C)C(=O)N[C@@H](Cc1ccccc1)C(=O)N[C@H](C(=O)N[C@@H](CCC(=O)O)C(=O)N[C@@H](Cc1ccc(O)cc1)C(=O)N[C@@H](CC(C)C)C(=O)N[C@H](C(=O)N[C@@H](CCC(=O)O)C(=O)NCC(=O)NCC(=O)N1CCC[C@H]1C(=O)N[C@@H](CO)C(=O)N[C@@H](CO)C(=O)NCC(=O)N[C@@H](C)C(=O)N1CCC[C@H]1C(=O)N1CCC[C@H]1C(=O)N1CCC[C@H]1C(=O)N[C@@H](CO)C(N)=O)[C@@H](C)CC)[C@@H](C)CC [Example 31] (H-Y[Aib]EGTFTSDYSILLDKIAK([AEEA-AEEA-γGlu-C20 diacid])[Aib]AFIEYLIEGGPSSGAPPPS-NH2)
- Ki (human GIP receptor): 0.0275 nM
- EC50 [1]: 0.388 nM
- Ki (human GLP-1R): 6.58 nM
- EC50 [2]: 0.891 nM
- Ki (human Gcg receptor): 290 nM

SMILES: CC[C@H](C)[C@H](NC(=O)[C@H](CCCCN)NC(=O)[C@H](CC(=O)O)NC(=O)[C@H](CCCCNC(=O)COCCOCCNC(=O)COCCOCCNC(=O)CC[C@H](NC(=O)CCCCCCCCCCCCCCCCCCC(=O)O)C(=O)O)NC(=O)[C@H](CC(C)C)NC(=O)[C@@H](NC(=O)[C@H](CO)NC(=O)[C@H](Cc1ccc(O)cc1)NC(=O)[C@H](CC(=O)O)NC(=O)[C@H](CO)NC(=O)[C@@H](NC(=O)[C@H](Cc1ccccc1)NC(=O)[C@@H](NC(=O)CNC(=O)[C@H](CCC(=O)O)NC(=O)C(C)(C)NC(=O)[C@@H](N)Cc1ccc(O)cc1)[C@@H](C)O)[C@@H](C)O)[C@@H](C)CC)C(=O)N[C@@H](C)C(=O)N[C@@H](CCC(N)=O)C(=O)NC(C)(C)C(=O)N[C@@H](C)C(=O)N[C@@H](Cc1ccccc1)C(=O)N[C@H](C(=O)N[C@@H](CCC(=O)O)C(=O)N[C@@H](Cc1ccc(O)cc1)C(=O)N[C@@H](CC(C)C)C(=O)N[C@H](C(=O)N[C@@H](CCC(=O)O)C(=O)NCC(=O)NCC(=O)N1CCC[C@H]1C(=O)N[C@@H](CO)C(=O)N[C@@H](CO)C(=O)NCC(=O)N[C@@H](C)C(=O)N1CCC[C@H]1C(=O)N1CCC[C@H]1C(=O)N1CCC[C@H]1C(=O)N[C@@H](CO)C(N)=O)[C@@H](C)CC)[C@@H](C)CC [Example 27] (H-Y[Aib]EGTFTSDYSILK([AEEA-AEEA-γGlu-C20 diacid])DKIAQ[Aib]AFIEYLIEGGPSSGAPPPS-NH2)
- Ki (human GIP receptor): 0.103 nM
- EC50 [1]: 0.0789 nM
- Ki (human GLP-1R): 3.68 nM
- EC50 [2]: 0.557 nM
- Ki (human Gcg receptor): 315 nM

SMILES: CC[C@H](C)[C@H](NC(=O)[C@H](CC(C)C)NC(=O)[C@H](Cc1ccc(O)cc1)NC(=O)[C@@H](CCC(=O)O)NC(=O)[C@@H](NC(=O)[C@H](Cc1ccccc1)NC(=O)[C@H](CCC(=O)O)NC(=O)C(C)(C)NC(=O)[C@H](CCC(N)=O)NC(=O)[C@H](C)NC(=O)[C@H](CCCCNC(=O)COCCOCCNC(=O)COCCOCCNC(=O)CC[C@H](NC(=O)CCCCCCCCCCCCCCCCCCC(=O)O)C(=O)O)NC(=O)[C@H](Cc1c[nH]cn1)NC(=O)[C@H](CC(=O)O)NC(=O)[C@H](CC(C)C)NC(=O)[C@](C)(CC(C)C)NC(=O)[C@@H](NC(=O)[C@H](CO)NC(=O)[C@H](Cc1ccc(O)cc1)NC(=O)[C@H](CC(=O)O)NC(=O)[C@H](CO)NC(=O)[C@@H](NC(=O)[C@](C)(Cc1ccccc1F)NC(=O)[C@@H](NC(=O)CNC(=O)[C@H](CCC(=O)O)NC(=O)C(C)(C)NC(=O)[C@@H](N)Cc1ccc(O)cc1)[C@@H](C)O)[C@@H](C)O)[C@@H](C)CC)[C@@H](C)CC)C(=O)N[C@@H](CCC(=O)O)C(=O)NCC(=O)NCC(=O)N1CCC[C@H]1C(=O)N[C@@H](CO)C(=O)N[C@@H](CO)C(=O)NCC(=O)N[C@@H](C)C(=O)N1CCC[C@H]1C(=O)N1CCC[C@H]1C(=O)N1CCC[C@H]1C(=O)N[C@@H](CO)C(N)=O [Example 230] (H-Y[Aib]EGT[αMePhe(2-F)]TSDYSI[αMeL]LDHK([AEEA-AEEA-γGlu-C20 diacid])AQ[Aib]EFI[dE]YLIEGGPSSGAPPPS-NH2)
- Ki (human GIP receptor): 0.042 nM
- EC50 [1]: 0.0431 nM
- Ki (human GLP-1R): 4.68 nM
- EC50 [2]: 0.0491 nM
- Ki (human Gcg receptor): 494 nM

SMILES: CC[C@H](C)[C@H](NC(=O)[C@H](CC(C)C)NC(=O)[C@H](Cc1ccc(O)cc1)NC(=O)[C@H](CCC(=O)O)NC(=O)[C@@H](NC(=O)[C@H](Cc1ccccc1)NC(=O)[C@H](CCC(=O)O)NC(=O)C(C)(C)NC(=O)[C@H](CCC(N)=O)NC(=O)[C@H](C)NC(=O)[C@H](CCCCNC(=O)COCCOCCNC(=O)COCCOCCNC(=O)CC[C@H](NC(=O)CCCCCCCCCCCCCCCCCCC(=O)O)C(=O)O)NC(=O)[C@H](CCC(=O)O)NC(=O)[C@H](CC(=O)O)NC(=O)[C@H](CC(C)C)NC(=O)[C@](C)(CC(C)C)NC(=O)[C@@H](NC(=O)[C@H](CO)NC(=O)[C@H](Cc1cccnc1)NC(=O)[C@H](CC(=O)O)NC(=O)[C@H](CO)NC(=O)[C@@H](NC(=O)[C@](C)(Cc1ccccc1F)NC(=O)[C@@H](NC(=O)CNC(=O)[C@H](CCC(=O)O)NC(=O)C(C)(C)NC(=O)[C@@H](N)Cc1ccc(O)cc1)[C@@H](C)O)[C@@H](C)O)[C@@H](C)CC)[C@@H](C)CC)C(=O)N[C@@H](CCC(=O)O)C(=O)NCC(=O)NCC(=O)N1CCC[C@H]1C(=O)N[C@@H](CO)C(=O)N[C@@H](CO)C(=O)NCC(=O)N[C@@H](C)C(=O)N1CCC[C@H]1C(=O)N1CCC[C@H]1C(=O)N1CCC[C@H]1C(=O)N[C@@H](CO)C(N)=O [Example 157] (H-Y[Aib]EGT[αMePhe(2-F)]TSD[3Pal]SI[αMeL]LDEK([AEEA-AEEA-γGlu-C20 diacid])AQ[Aib]EFIEYLIEGGPSSGAPPPS-NH2)
- Ki (human GIP receptor): 0.0937 nM
- EC50 [1]: 0.0453 nM
- Ki (human GLP-1R): 8.97 nM
- EC50 [2]: 0.0431 nM
- Ki (human Gcg receptor): 179 nM

SMILES: CC[C@H](C)[C@H](NC(=O)[C@H](CC(C)C)NC(=O)[C@H](Cc1ccc(O)cc1)NC(=O)[C@@H](CCC(=O)O)NC(=O)[C@@H](NC(=O)[C@H](Cc1ccccc1)NC(=O)[C@H](CCC(=O)O)NC(=O)C(C)(C)NC(=O)[C@H](CCC(N)=O)NC(=O)[C@H](C)NC(=O)[C@H](CCCCNC(=O)COCCOCCNC(=O)COCCOCCNC(=O)CC[C@H](NC(=O)CCCCCCCCCCCCCCCCC(=O)O)C(=O)O)NC(=O)[C@H](CCN)NC(=O)[C@H](CC(=O)O)NC(=O)[C@H](CC(C)C)NC(=O)[C@](C)(CC(C)C)NC(=O)[C@@H](NC(=O)[C@H](CO)NC(=O)[C@H](Cc1ccncc1)NC(=O)[C@H](CC(=O)O)NC(=O)[C@H](CO)NC(=O)[C@@H](NC(=O)[C@](C)(Cc1ccccc1F)NC(=O)[C@@H](NC(=O)CNC(=O)[C@H](CCC(=O)O)NC(=O)C(C)(C)NC(=O)[C@@H](N)Cc1ccc(O)cc1)[C@@H](C)O)[C@@H](C)O)[C@@H](C)CC)[C@@H](C)CC)C(=O)N[C@@H](CCC(=O)O)C(=O)NCC(=O)NCC(=O)N1CCC[C@H]1C(=O)N[C@@H](CO)C(=O)N[C@@H](CO)C(=O)NCC(=O)N[C@@H](C)C(=O)N1CCC[C@H]1C(=O)N1CCC[C@H]1C(=O)N1CCC[C@H]1C(=O)N[C@@H](CO)C(N)=O [Example 233] (H-Y[Aib]EGT[αMePhe(2-F)]TSD[4Pal]SI[αMeL]LD[Dab]K([AEEA-AEEA-γGlu-C18 diacid])AQ[Aib]EFI[dE]YLIEGGPSSGAPPPS-NH2)
- Ki (human GIP receptor): 0.0445 nM
- EC50 [1]: 0.0288 nM
- Ki (human GLP-1R): 5.99 nM
- EC50 [2]: 0.0549 nM
- Ki (human Gcg receptor): > 1150 nM
